From patent US8415351B2 (priority 2007, dated 2013)

Columns and labels:
[1] = target: T1, HCV polymerase 1A (Δ21 NS5B, H77) (Hepatitis C virus genotype 1a, UniProt P27958); assay: biochemical; conditions: IC50 1a
T1 construct: 20 to 50 nM Δ21 NS5B
How it was run: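 Incorporation of 1 μM ^3H-UTP, with 20 μM each of CTP and ATP on 5 nM template RNA, ran 2–4 h at room temperature. Spermine-precipitated product was filtered and scintillation-counted. IC50 came from tight-binding non-linear regression of cpm against inhibitor concentration.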

[2] = target: T2, HCV polymerase 1B (Δ21 NS5B, BK) (Hepatitis C virus genotype 1b, UniProt P26663); assay: biochemical
T2 construct: 20 to 50 nM Δ21 NS5B
How it was run: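 Δ21 NS5B (genotype 1b, BK […]) preincubated 15 min RT with inhibitor, 2 mM MnCl2, pH 7.4, 60–125 μM GTP; started with 20 μM CTP/ATP, 1 μM 3H-UTP, 5 nM template RNA, run 2–4 h RT. Spermine-precipitated RNA filter-captured, scintillation counted; IC50 from tight-binding (Morrison) fit.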

[3] = test system: genotype 1a-H77 subgenomic replicon cell line; assay: microbe, parasite or virus in culture; format: cell-based, HCV; conditions: Hepatitis C virus, read-out: EC50 1a
[4] = test system: genotype 1b-Con1 subgenomic replicon cell line; assay: microbe, parasite or virus in culture; format: cell-based, HCV; conditions: Hepatitis C virus, read-out: EC50 1b

T1 sequence (P27958 2421-2990, stated change not applied): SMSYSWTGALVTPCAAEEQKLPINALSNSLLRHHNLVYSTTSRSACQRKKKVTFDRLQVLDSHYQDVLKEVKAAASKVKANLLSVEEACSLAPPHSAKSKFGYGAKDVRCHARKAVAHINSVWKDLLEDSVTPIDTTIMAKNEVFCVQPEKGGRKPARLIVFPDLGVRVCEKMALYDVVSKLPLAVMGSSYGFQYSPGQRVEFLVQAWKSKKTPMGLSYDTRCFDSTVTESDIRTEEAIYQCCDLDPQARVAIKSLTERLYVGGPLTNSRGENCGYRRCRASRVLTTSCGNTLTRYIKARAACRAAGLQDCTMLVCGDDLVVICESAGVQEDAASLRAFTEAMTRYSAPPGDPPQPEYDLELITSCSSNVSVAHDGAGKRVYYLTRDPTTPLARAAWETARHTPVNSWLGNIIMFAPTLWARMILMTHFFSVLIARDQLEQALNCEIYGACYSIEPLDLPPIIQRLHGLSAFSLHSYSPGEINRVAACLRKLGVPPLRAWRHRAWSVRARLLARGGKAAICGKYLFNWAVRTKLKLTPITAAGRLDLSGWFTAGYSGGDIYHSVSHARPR
T2 sequence (P26663 2420-2989, stated change not applied): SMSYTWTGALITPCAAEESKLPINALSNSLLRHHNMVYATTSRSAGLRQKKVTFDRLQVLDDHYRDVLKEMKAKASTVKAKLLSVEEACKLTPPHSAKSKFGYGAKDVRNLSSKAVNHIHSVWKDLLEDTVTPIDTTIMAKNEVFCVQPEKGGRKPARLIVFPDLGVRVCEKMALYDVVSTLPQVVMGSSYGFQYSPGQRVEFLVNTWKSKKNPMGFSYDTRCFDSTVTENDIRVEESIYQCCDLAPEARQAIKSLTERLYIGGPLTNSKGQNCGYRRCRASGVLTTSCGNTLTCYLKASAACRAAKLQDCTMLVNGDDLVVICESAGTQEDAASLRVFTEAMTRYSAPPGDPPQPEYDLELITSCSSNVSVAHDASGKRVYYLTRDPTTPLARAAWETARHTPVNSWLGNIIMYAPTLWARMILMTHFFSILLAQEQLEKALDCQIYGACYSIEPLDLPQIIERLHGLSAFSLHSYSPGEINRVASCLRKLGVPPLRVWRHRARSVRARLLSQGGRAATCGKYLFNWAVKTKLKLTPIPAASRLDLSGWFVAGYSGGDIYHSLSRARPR

Row | Compound | IC50 [1] [µM] | IC50 [2] [µM] | EC50 [3] [µM] | EC50 [4] [µM]
1 | CC(C)(C)c1cc(N2CCC(=O)NC2=O)cc(C(=O)Nc2ccc(S(C)(=O)=O)cc2)c1O [IA-L3-1.21, 3-tert-butyl-5-(2,4-dioxotetrahydropyrimidin-1(2H)-yl)-2-hydroxy-N-(4-(methylsulfonyl)phenyl)benzamide] | > 1 | 0.1 to 1 | > 1 | > 1
2 | CC(C)(C)c1cc(N2CCC(=O)NC2=O)cc(C(=O)Nc2ccccc2S(N)(=O)=O)c1O [IA-L3-1.22, 3-tert-butyl-5-(2,4-dioxotetrahydropyrimidin-1(2H)-yl)-2-hydroxy-N-(2-sulfamoylphenyl)benzamide] | 0.1 to 1 | 0.01 to 0.1 | > 1 | > 1
3 | COc1c(C(=O)Nc2ccccc2)cc(N2CCC(=O)NC2=O)cc1C(C)(C)C [IA-L3-1.24, 3-tert-butyl-5-(2,4-dioxotetrahydropyrimidin-1(2H)-yl)-2-methoxy-N-phenylbenzamide] | 0.1 to 1 | 0.1 to 1 | > 1 | > 1
4 | COc1c(C(=O)N(C)c2ccc(NS(C)(=O)=O)cc2)cc(N2CCC(=O)NC2=O)cc1C(C)(C)C [IA-L3-1.27, 3-tert-butyl-5-(2,4-dioxotetrahydropyrimidin-1(2H)-yl)-2-methoxy-N-methyl-N-(4-(methylsulfonamido)phenyl)benzamide] | 0.1 to 1 | 0.1 to 1 | > 1 | > 1
5 | COc1c(C(=O)Nc2ccc(CC(=O)O)cc2)cc(N2CCC(=O)NC2=O)cc1C(C)(C)C [IA-L3-1.30, 2-(4-(3-tert-butyl-5-(2,4-dioxotetrahydropyrimidin-1(2H)-yl)-2-methoxybenzamido)phenyl)-acetic acid] | > 1 | 0.1 to 1 | > 1 | > 1
6 | CNS(=O)(=O)Cc1ccc(NC(=O)c2cc(N3CCC(=O)NC3=O)cc(C(C)(C)C)c2OC)cc1 [IA-L3-1.31, 3-tert-butyl-5-(2,4-dioxotetrahydropyrimidin-1(2H)-yl)-2-methoxy-N-(4-(N-methylsulfamoylmethyl)phenyl)benzamide] | > 1 | > 1 | > 1 | > 1
7 | COc1c(C(=O)Nc2ccc(O)cc2)cc(N2CCC(=O)NC2=O)cc1C(C)(C)C [IA-L3-1.33, 3-tert-butyl-5-(2,4-dioxotetrahydropyrimidin-1(2H)-yl)-N-(4-hydroxyphenyl)-2-methoxybenzamide] | > 1 | 0.1 to 1 | > 1 | > 1
8 | COc1c(C(=O)Nc2ccc(OCC#N)cc2)cc(N2CCC(=O)NC2=O)cc1C(C)(C)C [IA-L3-1.38, 3-tert-butyl-N-(4-(cyanomethoxy)phenyl)-5-(2,4-dioxotetrahydropyrimidin-1(2H)-yl)-2-methoxybenzamide] | > 1 | 0.1 to 1 | > 1 | > 1
9 | COc1c(C(=O)Nc2ccc(OCC(N)=O)cc2)cc(N2CCC(=O)NC2=O)cc1C(C)(C)C [IA-L3-1.39, N-(4-(2-amino-2-oxoethoxy)phenyl)-3-tert-butyl-5-(2,4-dioxotetrahydropyrimidin-1(2H)-yl)-2-methoxybenzamide] | > 1 | 0.1 to 1 | > 1 | > 1
10 | COc1c(C(=O)Nc2ccc(OS(C)(=O)=O)cc2)cc(N2CCC(=O)NC2=O)cc1C(C)(C)C [IA-L3-1.41, 4-(3-tert-butyl-5-(2,4-dioxotetrahydropyrimidin-1(2H)-yl)-2-methoxybenzamido)phenyl methanesulfonate] | 0.1 to 1 | > 1 | > 1 | 0.1 to 1
11 | COc1c(C(=O)Nc2ccc(NS(C)(=O)=O)cc2)cc(N2CCC(=O)NC2=O)cc1C(C)(C)C [IA-L3-1.51] | 0.01 to 0.1 | 0.01 to 0.1 | 0.1 to 1 | 0.01 to 0.1
12 | COc1c(C(=O)Nc2ccc(NS(=O)(=O)CC(C)C)cc2)cc(N2CCC(=O)NC2=O)cc1C(C)(C)C [IA-L3-1.52, 3-tert-butyl-5-(2,4-dioxotetrahydropyrimidin-1(2H)-yl)-2-methoxy-N-(4-(2-methylpropyl-sulfonamido)phenyl)benzamide] | 0.1 to 1 | 0.1 to 1 | > 1 | 0.1 to 1
13 | COc1c(C(=O)Nc2ccc(NS(=O)(=O)CC(F)(F)F)cc2)cc(N2CCC(=O)NC2=O)cc1C(C)(C)C [IA-L3-1.55, 3-tert-butyl-5-(2,4-dioxotetrahydropyrimidin-1(2H)-yl)-2-methoxy-N-(4-(2,2,2-trifluoro-ethylsulfonamido)phenyl)benzamide] | 0.1 to 1 | 0.1 to 1 | > 1 | > 1
14 | COc1c(C(=O)Nc2ccc(NS(=O)(=O)Cc3ccccc3)cc2)cc(N2CCC(=O)NC2=O)cc1C(C)(C)C [IA-L3-1.57, 3-tert-butyl-5-(2,4-dioxotetrahydropyrimidin-1(2H)-yl)-2-methoxy-N-(4-(phenylmethyl-sulfonamido)phenyl)benzamide] | 0.01 to 0.1 | 0.1 to 1 | 0.1 to 1 | 0.1 to 1
15 | COc1c(C(=O)Nc2ccc(NS(=O)(=O)c3c(C)noc3C)cc2)cc(N2CCC(=O)NC2=O)cc1C(C)(C)C [IA-L3-1.59, 3-tert-butyl-N-[4-(3,5-dimethyl-isoxazole-4-sulfonylamino)-phenyl]-5-(2,4-dioxo-tetrahydro-pyrimidin-1-yl)-2-methoxy-benzamide] | 0.1 to 1 | 0.01 to 0.1 | > 1 | > 1
16 | COc1c(C(=O)Nc2ccc(NS(=O)(=O)c3ccccc3)cc2)cc(N2CCC(=O)NC2=O)cc1C(C)(C)C [IA-L3-1.60, 3-tert-butyl-5-(2,4-dioxotetrahydropyrimidin-1(2H)-yl)-2-methoxy-N-(4-(phenylsulfonamido)phenyl)benzamide] | 0.01 to 0.1 | 0.01 to 0.1 | 0.1 to 1 | 0.01 to 0.1
17 | COc1c(C(=O)Nc2ccc(N(C)S(C)(=O)=O)cc2)cc(N2CCC(=O)NC2=O)cc1C(C)(C)C [IA-L3-1.62, 3-tert-butyl-5-(2,4-dioxotetrahydropyrimidin-1(2H)-yl)-2-methoxy-N-(4-(N-methylmethylsulfonamido)phenyl)benzamide] | 0.1 to 1 | 0.1 to 1 | > 1 | 0.1 to 1
18 | COc1ccc(CN(c2ccc(NC(=O)c3cc(N4CCC(=O)NC4=O)cc(C(C)(C)C)c3OC)cc2)S(C)(=O)=O)cc1 [IA-L3-1.67, 3-tert-butyl-5-(2,4-dioxotetrahydropyrimidin-1(2H)-yl)-2-methoxy-N-(4-(N-(4-methoxy-benzyl)methylsulfonamido)phenyl)benzamide] | > 1 | > 1 | > 1 | 0.1 to 1
19 | COc1c(C(=O)Nc2ccc(N(C(C)=O)S(C)(=O)=O)cc2)cc(N2CCC(=O)NC2=O)cc1C(C)(C)C [IA-L3-1.69, N-[4-(acetyl-methanesulfonyl-amino)-phenyl]-3-tert-butyl-5-(2,4-dioxo-tetrahydro-pyrimidin-1-yl)-2-methoxy-benzamide] | 0.1 to 1 | 0.1 to 1 | 0.1 to 1 | 0.01 to 0.1
20 | CCC(=O)N(c1ccc(NC(=O)c2cc(N3CCC(=O)NC3=O)cc(C(C)(C)C)c2OC)cc1)S(C)(=O)=O [IA-L3-1.70, 3-tert-butyl-5-(2,4-dioxotetrahydropyrimidin-1(2H)-yl)-2-methoxy-N-(4-(N-(methylsulfonyl)propionamido)phenyl)benzamide] | > 1 | > 1 | 0.1 to 1 | 0.01 to 0.1
21 | CCCC(=O)N(c1ccc(NC(=O)c2cc(N3CCC(=O)NC3=O)cc(C(C)(C)C)c2OC)cc1)S(C)(=O)=O [IA-L3-1.71, 3-tert-butyl-5-(2,4-dioxotetrahydropyrimidin-1(2H)-yl)-2-methoxy-N-(4-(N-(methylsulfonyl)butyramido)phenyl)benzamide] | 0.1 to 1 | > 1 | 0.1 to 1 | 0.01 to 0.1
22 | COc1c(C(=O)Nc2ccc(NS(C)(=O)=O)cc2C)cc(N2CCC(=O)NC2=O)cc1C(C)(C)C [IA-L3-1.83, 3-tert-butyl-5-(2,4-dioxotetrahydropyrimidin-1(2H)-yl)-2-methoxy-N-(2-methyl-4-(methylsulfonamido)phenyl)benzamide] | 0.01 to 0.1 | 0.1 to 1 | 0.1 to 1 | 0.1 to 1
23 | COc1cc(NS(C)(=O)=O)ccc1NC(=O)c1cc(N2CCC(=O)NC2=O)cc(C(C)(C)C)c1OC [IA-L3-1.85, 3-tert-butyl-5-(2,4-dioxotetrahydropyrimidin-1(2H)-yl)-2-methoxy-N-(2-methoxy-4-(methylsulfonamido)phenyl)benzamide] | 0.1 to 1 | 0.1 to 1 | 0.1 to 1 | 0.1 to 1
24 | CC(C)(C)c1cc(N2CCC(=O)NC2=O)cc(C(=O)Nc2scc(CNS(C)(=O)=O)c2S(N)(=O)=O)c1O [IA-L3-1.89, 3-tert-butyl-5-(2,4-dioxotetrahydropyrimidin-1(2H)-yl)-2-hydroxy-N-(4-(methylsulfonamidomethyl)-3-sulfamoylthiophen-2-yl)benzamide] | 0.01 to 0.1 | 0.01 to 0.1 | 0.1 to 1 | 0.01 to 0.1
